# Where two headings read alike, the source gives them in different places.
# What was measured:
# [1] = system: HCV replicon cells Huh 9B (genotype 1b); assay: 1b Replicon Assay (luciferase readout); format: cell-based; settings: Hepatitis C virus, Huh 9B replicon cells, 72 h, luciferase activity
# Protocol: HCV replicon cells Huh 9B (ReBlikon), containing the firefly luciferase-ubiquitin-neomycin phosphotransferase fusion protein and EMCV-IRES driven HCV polyprotein with cell culture adaptive mutations.
# Cells were cultured at 37° C./5% CO2 and split twice a week. G418 at 0.5 mg/ml was added to the culture medium but not the assay medium.
# The culture medium consisted of DMEM with […] glucose and Glutamax (Gibco 61965-026) supplemented with 1× non-essential amino acids (Invitrogen 11140-035), 0.5 mg/ml G418 (Invitrogen 10131-027) and 10% Australian foetal calf serum (Invitrogen 10099-141).
# Replicon cells were trypsinised and counted. Cells were diluted to 100,000 cells/ml and 100 μl used to seed one opaque white 96-well plate (for the replicon assay) and one flat-bottomed clear plate (for the tox assay) for every five compounds to be tested for IC50. Wells G12 and H12 were left empty in the clear plate as the blank. Plates were then incubated at 37° C./5% CO2 for 24 h.
# On the following day compound dilutions were prepared in medium at twice their desired final concentration in a clear round bottomed plate. All dilutions have a final DMSO concentration of 1%.
# Controls and compounds were transferred from the dilution plates to the assay plates (containing the cells) at 100 μl/well in duplicate wells.
# Exception: no compound was added to wells A1 and A2 of either plate and 100 μl of 1% DMSO was added to these instead. Plates were then incubated at 37° C./5% CO2 for 72 h.
# At the end of the incubation time, the cells in the white plate were washed in PBS (100 μL per well) and dried by tapping before addition of 204 per well of lysis buffer (25 mM tris-phosphate, 8 mM MgCl2, 1 mM DTT, 1% Triton X-100, 15% glycerol; pH to 7.8 using KH2PO4 prior to Triton X-100 and glycerol addition). Aliquots of substrate (23.5 mM beetle luciferin (Promega E1603), 26 mM ATP (Sigma O-2060) in […] Tris buffer pH 7.8) were stored at −80° C. Prior to use, required amount of luciferin was thawed and diluted 1:50 in luciferase assay buffer (20 mM Tricine (Sigma T-0377), 1.07 mM magnesium carbonate hydroxide (Sigma M-5671), 0.1 mM EDTA (Sigma E-5134), 2.67 mM MgSO4(BDH 101514Y), 33.3 mM dithiothreitol (Sigma 150460) pH 7.8).
# After 5-60 min incubation in lysis buffer at room temperature, a plate was inserted into the luminometer and 100 μl luciferase assay reagent was added by the injector of the luminometer. The signal was measured using a 1 second delay followed by a 4 second measurement programme. The IC50, the concentration of the drug required for reducing the replicon level by 50% in relation to the untreated cell control value, was calculated from the plot of the percentage reduction of the luciferase activity vs. drug concentration.
# [2] = system: HCV genotype 1a replicon cells Htat2ANeo; assay: 1a Replicon Assay (cell-based anti-NS5a ELISA); settings: Hepatitis C virus, 72 h
# Protocol: HCV genotype la replicon cells Htat2ANeo (University of Texas), containing neomycin phosphotransferase fusion protein and EMCV-IRES driven HCV polyprotein with cell culture adaptive mutations, and control cells, Et2AN.
# Cells were cultured at 37° C./5% CO2 and split twice a week. G418 at 0.5 mg/ml and Blastocidin at 2 mg/ml were added to the culture medium but not the assay medium.
# The culture medium consisted of DMEM with […] glucose and Glutamax (Gibco 61965-026) supplemented with 1× non-essential amino acids (Invitrogen 11140-035), 0.5 mg/ml G418 (Invitrogen 10131-027), 2 mg/ml Blastocidin (PAA) and 10% is Australian foetal calf serum (Invitrogen 10099-141).
# Replicon and control cells were trypsinised and counted. Replicon cells were diluted to 90,000 cells/ml and 100 μl of this used to seed columns 2-4, […] and 10-12 of a black, clear bottom 96-well plate for every three compounds to be tested for IC50. Control cells were diluted to 60,000 cells/ml and 100 μl of this used to seed columns 1, 5 and 9 of the plate. Well H1 was left empty as the blank. Plates were then incubated at 37° C./5% CO2 for 24 h.
# On the following day compound dilutions were prepared in medium at twice their desired final concentration in a clear round bottomed plate.
# Controls and compounds were transferred from the dilution plate to the assay plates (containing the cells) at 100 μl/well in quadruplicate wells, one well containing control cells and 3 wells containing replicon cells.
# Exception: no compound was added to row H of the plate and 100 μl of 1% DMSO was added to these instead. Plates were then incubated at 37° C. with 5% CO2 for 72 h. At the end of the incubation time, any reduction in cell viability was assayed and a cell-based enzyme linked immunosorbent assay (ELISA) was performed. The media/compound was removed from all wells and replaced with 100 μl/well serum-free media and 20 μl/well Cell Titre Blue (Promega G8081). Following incubation at 37° C./5% CO2 for 2 h plates were read on a microplate fluorometer (Molecular Devices) using an excitation of 570 nm and an emission of 590 nm The TD50, the concentration of drug required to reduce 50% of Cell Titre Blue relative to the DMSO controls, was calculated by plotting the fluorescence at 590 nm after substraction of background against drug concentration.
# The media/Cell Titre Blue was removed and plates washed in PBS and gently tapped dry before addition of 50 μL per well of 75% acetone/25% methanol mixture for 3 minutes. The fixative was then discarded and wells were washed with PBS before addition of 100 μl/well of blocking solution (2% non-fat dry milk and 0.05% Tween-20 in 0.85% NaCl). Plates were then incubated at 37° C. in a shaking incubator for 60 min. Blocking solution was discarded and 50 μl of mouse anti-NS5a antibody (Virostat 1877) at 1:100 dilution in blocking buffer was added to all wells. Plates were incubated at 37° C. in a shaking incubator for 90 min Antibody was then discarded and plates were washed 4 times by immersion in 0.85% NaCl/0.05% Tween-20. After washing plates were tapped dry gently and 50 μl of secondary antibody (Dako P0260 Rabbit anti-mouse horseradish peroxidase) at 1:1000 dilution in blocking buffer was added to the wells. Plates were incubated at 37° C. in a shaking incubator for 60 min. Antibody was discarded and plates were washed 6 times by immersion in 0.85% NaCl/0.05% Tween-20 and once in PBS. Finally, 50 μl of substrate (SigmaFast ortho-phenylene diamine dihydrochloride (OPD)) was added per well and the colorimetric reaction was allowed to proceed in the dark for 5 to 15 minutes depending on the strength or the signal. The reaction was stopped by addition of 25 μl/well of 20% sulphuric acid. Plates were read on the SpectraMax microplate reader at 490 nm fixed wavelength. […]
# [3] = read-out: pIC50 1b Replicon (converted)
# [4] = read-out: pIC50 1a Replicon (converted)
Compound,IC50 ([1]; read-out: HCV IC50 1b Replicon) [nM],"IC50 [1, 3] [nM]",IC50 ([2]; read-out: HCV IC50 Elisa 1a) [nM],"IC50 [2, 4] [nM]"
"COC(=O)N[C@@H](C(=O)N1CCC[C@H]1c1ncc(-c2cccc(-c3ccc(C(=O)Nc4ccc(CN5CCS(=O)(=O)CC5)cc4)cc3)c2)[nH]1)c1ccccc1 [Example 37, Methyl N-[(1R)-2-[(2S)-2-[5-[3-[4-[[4-[(1,1-dioxo-1,4-thiazinan-4-yl)methyl]phenyl]carbamoyl]phenyl]phenyl]-1H-imidazol-2-yl]pyrrolidin-1-yl]-2-oxo-1-phenyl-ethyl]carbamate]",21.5,21.4,,
"CN(C)[C@@H](C(=O)N1CCCC[C@H]1c1ncc(-c2ccc(-c3ccc(C(=O)Nc4ccc(CN5CCS(=O)(=O)CC5)cc4)cc3)cc2)[nH]1)c1ccccc1 [Example 53, 4-[4-[2-[(2S)-1-[(2R)-2-(dimethylamino)-2-phenyl-acetyl]-2-piperidyl]-1H-imidazol-5-yl]phenyl]-N-[4-[(1,1-dioxo-1,4-thiazinan-4-yl)methyl]phenyl]benzamide]",0.82,0.813,324,324
"CCCS(=O)(=O)N1CCN(Cc2ccc(NC(=O)c3ccc(-c4ccc(-c5cnc([C@@H]6CCCN6C(=O)[C@@H](c6ccccc6)N(CC)CC)[nH]5)cc4)cc3)cc2)CC1 [Example 44, 4-[4-[2-[(2S)-1-[(2R)-2-(diethylamino)-2-phenyl-acetyl]pyrrolidin-2-yl]-1H-imidazol-5-yl]phenyl]-N-[4-[(4-propylsulfonylpiperazin-1-yl)methyl]phenyl]benzamide]",0.01,0.0145,50.5,50.1
"COC(=O)N[C@H](C(=O)N1CCC[C@H]1c1ncc(-c2cccc(-c3ccc(C(=O)Nc4ccc(CN5CCS(=O)(=O)CC5)cc4)cc3)c2)[nH]1)c1ccccc1 [Example 36, Methyl N-[(1S)-2-[(2S)-2-[5-[3-[4-[[4-[(1,1-dioxo-1,4-thiazinan-4-yl)methyl]phenyl]carbamoyl]phenyl]phenyl]-1H-imidazol-2-yl]pyrrolidin-1-yl]-2-oxo-1-phenyl-ethyl]carbamate]",15.6,15.5,,
"CCN(CC)[C@@H](C(=O)N1CCC[C@@H]1c1ncc(-c2ccc(-c3ccc(C(=O)Nc4ccc(CN5CCS(=O)(=O)CC5)cc4)cc3)cc2)[nH]1)c1ccccc1 [Example 25, 4-[4-[2-[(2R)-1-[(2R)-2-(diethylamino)-2-phenyl-acetyl]pyrrolidin-2-yl]-1H-imidazol-5-yl]phenyl]-N-[4-[(1,1-dioxo-1,4-thiazinan-4-yl)methyl]phenyl]benzamide]",77.9,77.6,,
"CN(C)[C@@H](C(=O)N1CCC[C@@H]1c1ncc(-c2ccc(-c3ccc(C(=O)Nc4ccc(CN5CCS(=O)(=O)CC5)cc4)cc3)cc2)[nH]1)c1ccccc1 [Example 26, 4-[4-[2-[(2R)-1-[(2R)-2-(dimethylamino)-2-phenyl-acetyl]pyrrolidin-2-yl]-1H-imidazol-5-yl]phenyl]-N-[4-[(1,1-dioxo-1,4-thiazinan-4-yl)methyl]phenyl]benzamide]",55.7,56.2,,
"COC(=O)N[C@H](C(=O)N1CCC[C@H]1c1ncc(-c2cccc(-c3ccc(C(=O)Nc4ccc(CN5CCS(=O)(=O)CC5)cc4)cc3)c2)[nH]1)C(C)C [Example 33, Methyl N-[(1S)-1-[(2S)-2-[5-[3-[4-[[4-[(1,1-dioxo-1,4-thiazinan-4-yl)methyl]phenyl]carbamoyl]phenyl]phenyl]-1H-imidazol-2-yl]pyrrolidine-1-carbonyl]-2-methyl-propyl]carbamate]",159,158,,
"COC(=O)N[C@@H](C(=O)N1CCC[C@@H]1c1ncc(-c2ccc(-c3ccc(C(=O)Nc4ccc(CN5CCS(=O)(=O)CC5)cc4)cc3)cc2)[nH]1)c1ccccc1 [Example 24, Methyl N-[(1R)-2-[(2R)-2-[5-[4-[4-[[4-[(1,1-dioxo-1,4-thiazinan-4-yl)methyl]phenyl]carbamoyl]phenyl]phenyl]-1H-imidazol-2-yl]pyrrolidin-1-yl]-2-oxo-1-phenyl-ethyl]carbamate]",101,102,,
"COC(=O)N[C@H](C(=O)N1CCC[C@H]1c1ncc(-c2cccc(-c3ccc(C(=O)Nc4ccc(CN5CCS(=O)(=O)CC5)cc4)cc3)c2)[nH]1)C(C)(C)C [Example 35, Methyl N-[(1S)-1-[(2S)-2-[5-[3-[4-[[4-[(1,1-dioxo-1,4-thiazinan-4-yl)methyl]phenyl]carbamoyl]phenyl]phenyl]-1H-imidazol-2-yl]pyrrolidine-1-carbonyl]-2,2-dimethyl-propyl]carbamate]",129,129,,
"COC(=O)N[C@@H](C)C(=O)N1CCC[C@H]1c1ncc(-c2cccc(-c3ccc(C(=O)Nc4ccc(CN5CCS(=O)(=O)CC5)cc4)cc3)c2)[nH]1 [Example 34, Methyl N-[(1S)-2-[(2S)-2-[5-[3-[4-[[4-[(1,1-dioxo-1,4-thiazinan-4-yl)methyl]phenyl]carbamoyl]phenyl]phenyl]-1H-imidazol-2-yl]pyrrolidin-1-yl]-1-methyl-2-oxo-ethyl]carbamate]",252,251,,
"COC(=O)N[C@H](C(=O)N1CCC[C@@H]1c1ncc(-c2ccc(-c3ccc(C(=O)Nc4ccc(CN5CCS(=O)(=O)CC5)cc4)cc3)cc2)[nH]1)c1ccccc1 [Example 23, Methyl N-[(1S)-2-[(2R)-2-[5-[4-[4-[[4-[(1,1-dioxo-1,4-thiazinan-4-yl)methyl]phenyl]carbamoyl]phenyl]phenyl]-1H-imidazol-2-yl]pyrrolidin-1-yl]-2-oxo-1-phenyl-ethyl]carbamate]",109,110,,

# From US20100215618A1, “NOVEL COMPOUNDS - 644” (Arrow Therapeutics Limited, priority 2009, published 2010)
